Results: article PMC9756341 (Journal of the American Chemical Society, 2022)
Several values for one entry are separate records, joined by “and”; a condition that tells them apart may be missing. Identical values can stand only once. Values belong to the substance of their own block, whether it stands above or below them. The star is where a group is joined. ACC = NC(=O)Cc1cc(=O)oc2cc(N*)ccc12; AMC = Cc1cc(=O)oc2cc(N*)ccc12; Boc = CC(C)(C)OC(=O)*

Tests used:
KLK7 [1] = target: T1, KLK7 (Homo sapiens, UniProt P49862); test: Enzyme kinetics to calculate KM, KLK7; type: biochemical; conditions: fluorogenic substrate, KLK7 34 nM, 2% DMSO, room temperature, 30 min, Michaelis-Menten model, triplicates
T1 construct: gift from the group of Judith Clements (QUT)
T1 sequence (P49862 30-253): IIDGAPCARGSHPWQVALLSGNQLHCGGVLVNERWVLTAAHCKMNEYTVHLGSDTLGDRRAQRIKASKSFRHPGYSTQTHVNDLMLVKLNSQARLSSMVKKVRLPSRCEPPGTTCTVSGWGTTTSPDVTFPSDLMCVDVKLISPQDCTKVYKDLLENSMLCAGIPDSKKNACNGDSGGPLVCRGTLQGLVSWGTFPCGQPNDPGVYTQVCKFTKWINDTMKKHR
Method: (§1) Reagents were obtained from VWR, Sigma Aldrich, Sartorius, Fluorochem, AGTC, Novabiochem, TCI, Alfa Aesar, Iris Biotech, Thermofisher and Bachem. […]
(§2) (Code 7449-SE) and KLK8 (Code 2025-SE) were obtained from BioTechne. KLK6 was obtained from the group of Aubry Miller (DKFZ) and KLK7 was obtained from the group of Judith Clements (QUT).
(§3) The manufacturer’s recommended buffers were used with uPA and tPA but not KLK8. […]
(§4) Fluorescence measurements were measured using an Envision plate reader. Fluorescence data was processed using Graphpad Prism 8. […]
(§5) 2-chlorotrityl chloride resin. […]
(§6) 380nm/440nm. The data was analysed using Graphpad Prism 8. The initial slopes of each plot were calculated and presented in a bar chart, which represents the substrate specificity of the KLK. Error bars represent the standard deviation between the three replicates.
(§7) Enzyme kinetics to calculate KM. Purified fluorogenic substrates were measured in triplicates. […]
(§8) temperature, fluorescence was read once every 30 s for 30 min from an Envision plate reader at excitation/emission wavelengths of 380nm/440nm. The data was analysed with Graphpad Prism 8, using the Michaelis-Menten model.
(§9) Enzyme kinetics to calculate kobs/I. All ABPs and inhibitors were measured in triplicates. […]
(§10) using a pseudo first order kinetics model. The observed rate of inhibition (kobs) was calculated by plotting a one-phase association. […]

KLK8 [2] = target: T2, KLK8 (Homo sapiens, UniProt O60259); test: Enzyme kinetics to calculate KM, KLK8; type: biochemical; conditions: fluorogenic substrate, KLK8 1 nM, 2% DMSO, room temperature, 30 min, Michaelis-Menten model, triplicates
T2 construct: Active recombinant FGFBP1 (Code 1593-FB), HSPG2 (Code 2364-ER), uPA (Code 1310-SE), tPA (Code 7449-SE) and KLK8 (Code 2025-SE) were obtained from BioTechne; purchased BioTechne 2025-SE
T2 sequence (O60259 33-260): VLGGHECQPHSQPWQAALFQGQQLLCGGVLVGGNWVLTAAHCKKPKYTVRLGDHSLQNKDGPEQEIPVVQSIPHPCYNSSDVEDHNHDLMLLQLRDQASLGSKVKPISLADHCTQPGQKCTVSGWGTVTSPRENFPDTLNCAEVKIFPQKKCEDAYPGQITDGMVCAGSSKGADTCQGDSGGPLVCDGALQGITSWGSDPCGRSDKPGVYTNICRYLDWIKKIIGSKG
Method: as §1, §2, §3, §4, §5, §6, §7, §8, §9, §10

KLK6 = test: Enzyme kinetics to calculate kobs/I, KLK6; type: biochemical, human; conditions: KLK6 1.5 nM, fluorogenic substrate 22 5 µM, 50 mM Tris 150 mM NaCl 1 mM EDTA 0.05% Tween20 pH 7.5, room temperature, read every 30 s for 30 min, ex/em 380/440 nm, pseudo first order kinetics, corrected by (1 + [S]/KM), triplicates
KLK6[S195A] = test: In-gel fluorescence labelling of inactive KLK6[S195A]; type: binding, human; conditions: 1 h incubation
Description: (§11) Figure 3 ABP validation. […] Pulldown lanes show enriched proteins after streptavidin binding.

KLK8 [3] = target: T2, KLK8; test: Enzyme kinetics to calculate kobs/I, KLK8; type: biochemical; conditions: for KLK8 kobs/I: KLK8 1 nM, Boc-VPR-AMC 30 µM, 100 mM Na2PO4 0.01% Tween20 pH 8.5, room temperature, 30 min, pseudo first order kinetics, triplicates
[4] = test system: recombinant wild-type KLK6; test: In-gel fluorescence labelling of recombinant wild-type KLK6; type: binding, human; conditions: 1 h incubation
Description: as §11

[5] = target: T3, tissue plasminogen activator (tPA) (Homo sapiens, UniProt P00750); test: Enzyme kinetics to calculate kobs/I, tPA; type: biochemical
T3 construct: purchased BioTechne 7449-SE
T3 sequence (P00750 36-562): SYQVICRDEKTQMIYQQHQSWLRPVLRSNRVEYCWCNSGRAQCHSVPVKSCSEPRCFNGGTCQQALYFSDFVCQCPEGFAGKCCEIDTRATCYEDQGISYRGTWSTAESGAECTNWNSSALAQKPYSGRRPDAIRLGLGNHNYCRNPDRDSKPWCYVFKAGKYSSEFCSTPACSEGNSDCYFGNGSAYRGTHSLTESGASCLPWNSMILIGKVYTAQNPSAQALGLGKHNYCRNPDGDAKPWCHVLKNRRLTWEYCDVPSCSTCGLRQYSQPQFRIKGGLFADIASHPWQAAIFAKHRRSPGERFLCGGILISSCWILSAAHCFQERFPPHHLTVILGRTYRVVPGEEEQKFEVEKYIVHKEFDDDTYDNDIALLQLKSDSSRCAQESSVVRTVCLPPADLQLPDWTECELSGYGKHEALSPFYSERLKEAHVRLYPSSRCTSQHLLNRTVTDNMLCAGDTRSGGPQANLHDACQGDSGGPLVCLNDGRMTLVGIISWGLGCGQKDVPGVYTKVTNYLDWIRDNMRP
Method: as §1, §2
(§12) The manufacturer’s recommended buffers were used with uPA and tPA but not KLK8. The KLK6 assay buffer was as follows: 50 mM Tris 150 mM NaCl, 1 mM EDTA, 0.05% Tween20, pH 7.5. The KLK7/8 buffer was as follows: 100 mM Na2PO4, 0.01% Tween20, pH 8.5. Fluorescence measurements were measured using an Envision plate reader. Fluorescence data was processed using Graphpad Prism 8. […]
as §5

[6] = target: T4, urokinase plasminogen activator (uPA) (Homo sapiens, UniProt P00749); test: Enzyme kinetics to calculate kobs/I, uPA; type: biochemical
T4 construct: purchased BioTechne 1310-SE
Method: as §1, §2, §12, §5

KLK7 [7] = target: T1, KLK7; test: Enzyme kinetics to calculate kobs/I, KLK7; type: biochemical; conditions: for KLK7 kobs/I: KLK7 34 nM, substrate 24 5 µM, 100 mM Na2PO4 0.01% Tween20 pH 8.5, room temperature, 30 min, pseudo first order kinetics, triplicates
Method: as §1, §2, §12, §5

endogenous tPA and uPA = test: Competition labelling in Capan-2 conditioned media (NeutrAvidin-HRP blot); conditions: 2 h preincubation then bABP 17 1 h, concentrations as high as 40 μM
Description: as §11

[8] = test system: Capan-2 conditioned media proteome; conditions: 2 μM, 1 h, NeutrAvidin enrichment, LC–MS/MS, triplicate
Method: Pulldown experiments (LC-MS/MS) Conditioned media was diluted with PBS to exactly 1 mg/mL.
300 µg of total protein was used per replicate. Each condition was performed in triplicate. The inhibitor
or DMSO control (1:100 dilution) was incubated with the media at RT for 2 h with a gentle agitation.
for 1 h. The proteins were precipitated using the MeOH/H2O/CHCl3 method. The pellet was washed
twice with MeOH and dried in air for 5 min. The proteins were resuspended in 2% SDS, 50 mM HEPES
in H2O (pH 8) to a concentration of 10 mg/mL. 50 mM HEPES was added to gradually dilute the protein
back to 1 mg/mL and the samples were centrifuged (17,000 g, 5 min). A 1:1 mixture of NeutrAvidin
agarose resin (15 µL per 300 µg protein) and control agarose resin (15 µL per 300 µg protein) was
prepared and washed with 0.2% SDS, 50 mM HEPES. The test samples were added into the resin and
the mixture was shaken at RT for 2 h. The supernatant was removed, and the beads were washed with
3 × 0.2% SDS, 50 mM HEPES and 3 × 50 mM HEPES. The beads were resuspended in 50 mM HEPES
(50 µL). TCEP was added to a final concentration of 5 mM (1:20 dilution). Chloroacetamide was added
to a final concentration of 10 mM (1:20 dilution). The mixture was shaken at RT for 30 min. To digest
the peptides off the resin, 0.5 µL of trypsin (0.2 mg/mL stock) was added into each sample and the
samples were shaken at 37 °C overnight. […]

[9] = test system: intracellular proteases of Capan-2 cells; conditions: live Capan-2 cells or cell lysate, 2 h, NeutrAvidin-HRP blot
Method: S12. Probe treatment in live Capan-2 cells and cell lysate
Figure S12. Capan-2 cells were grown to 80% confluency, followed by the addition of bABP 17 or FP-biotin for 2 h. Cells were lysed, boiled with Laemmli buffer and analysed using a NeutrAivdin-HRP western blot (in cell blot). Standard Capan-2 lysate was also treated with the same amounts of bABP 17 and FP-biotin, followed by the same analysis (in lysate blot).
(1 picture or pasted object on this page, not shown here)

endogenous active KLK6 = conditions: Capan-2 conditioned media, streptavidin pulldown, KLK6 western blot
Method: Conditioned media was incubated with bABP 17 (10 μM) or DMSO for 2 h, and labeled proteins enriched on magnetic streptavidin-loaded beads, eluted, and analyzed by western blot against a KLK6 antibody.
Cell culture. Cells were cultured in their recommended culture media supplemented with 10% (v/v)
foetal bovine serum at 37 °C and 5% CO2.
Preparation of conditioned media. Cells were grown in standard growth media to 80% confluency in
a T175 flask. The medium was removed, and the cells were washed with serum-free, phenol-red free
RPMI. The cells were incubated with the same RPMI for 2 h. The medium was replaced once again
with serum-free, phenol-red free RPMI and the cells were incubated for 48 h. The condition medium
was collected and filtered through a 0.2 µm syringe filter. The medium was concentrated (25 mL to
0.75 mL) using a 3 kDa Mw cutoff spin filter to a final concentration of around 1 mg/mL. The protein
concentration was measured using a BioRad DCTM protein assay.
Pulldown experiments (western blot). Conditioned media was diluted with PBS to exactly 1 mg/mL.
200 µg of total protein was used per condition. The ABP or DMSO was added at a 1:100 dilution and
the samples were shaken at RT for 1 h. The proteins were precipitated using the MeOH/H2O/CHCl3
method. The pellet was washed twice with MeOH and dried in air for 5 min. The protein was
resuspended in 2% SDS in PBS to a concentration of 10 mg/mL. PBS was added to gradually dilute
the protein back to 1 mg/mL and the samples were centrifuged (17,000 g, 5 min). 5 µg of protein was
set aside as the “before pulldown” samples. Magnetic streptavidin beads were washed three times with
PBS. The rest of the protein was added into the beads and shaken at RT for 2 h. 5 µg of the supernatant
was set aside for analysis, while the rest was discarded. The beads were washed three times with 1%
SDS in PBS. […]
were boiled at 95 °C for 5 min. The proteins were analysed via SDS-PAGE and western blot analysis. […]
10 min, followed by 180 V for 60 min. Gels were then taken for western blot or in-gel fluorescence. […]

Capan-2 cells [10] = conditions: 0.13 to 2 μM, Incucyte live cell imaging every 4 h for 5 days, serum-free DMEM
Method: Incucyte assays for proliferation and toxicity
Proliferation was quantified using the Incucyte software by measuring percentage confluency. Sytox
green was used as a marker for cell death. Cell death was quantified by measuring total green
fluorescence of each well.
Incucyte (proliferation and toxicity) assays. Capan-2 cells were seeded in a sterile 96 well plate
(10,000 cells per well). The outermost wells were left empty to mitigate edge effects. Cells were grown
in growth media (10% FBS) overnight to adhere. The next day, the media was replaced with serum-free
DMEM (117 µL) containing Sytox green (250 nM) or a DMSO control.

[11] = test system: recombinant tPA, uPA, or KLK6; conditions: 2 h incubation, then fABP 21 for 1 h, in-gel fluorescence
BxPC-3 cells = BxPC-3 cells (no active KLK6), 2 μM, 24 h, relative to DMSO
Method: (§13) Next, the effect of KLK6 inhibition on migration and invasion of Capan-2 cells was assessed using a Boyden chamber assay.
(§14) (13 µL per condition). Control conditions included puromycin (100 µg/mL), DMSO only, Sytox green only or DMSO + Sytox green. The final inhibitor concentrations ranged from 2 µM to 125 nM. The cells were placed into an Incucyte with the incubator set at 37 °C and 5% CO2. Phase and green fluorescence were analysed every 4 h for 5 days.
(§15) Invasion/migration assays. Cell invasion was measured using Corning Fluoroblok inserts following a modified procedure11. Fluoroblok inserts were placed into the wells of a 24-well plate. Matrigel was suspended to 300 µg/mL in coating buffer (0.01M Tris, 0.7% NaCl, pH 8). The matrigel suspension (100 µL) was added into the Fluoroblok insert and the plate was left at 37 °C for 2 h. A migration control (with no matrigel) was also included. Cells were trypsinised and resuspended in serum-free DMEM.
(§16) The leftover buffer in the chambers was decanted and 500 µL of cells (100,000 per well) were seeded into the apical chamber of the insert. DMEM with 10% FBS (750 µL) was added into the basal chamber as a chemoattractant. The plate was incubated at 37 °C and 5% CO2 for 24 h. The chambers were removed and placed into a new 24-well plate containing 50 µM of CellTracker CMHC dye in HBSS. The cells were stained for 0.5 h and the chamber was removed and placed into the previous plate containing DMEM with 10% FBS. The cells were imaged for blue fluorescence (ex/em = 375/460) using a Celena S inverted fluorescence microscope. Percentage invasion was calculated by quantifying the cell area

Capan-2 cells [12] = conditions: Capan-2 cells (active KLK6), 2 μM, 24 h, relative to DMSO
Method: as §13, §14, §15, §16

[13] = Fluoroblok insert without Matrigel
[14] = Matrigel-coated Fluoroblok insert

Substance: Boc-Val-Pro-Arg-{AMC}
Km (KLK8 [2]): 290 µM

Substance: biotin–Ahx–DPhe–Ser(Z)–Dht–ArgPP [compound 17, optimized biotinylated KLK6 ABP]
proteases labeled/enriched over DMSO control [8]: KLK6, along with two off-targets, uPA and tPA | KLK6 kobs/I (KLK6): 11000 M^–1 s^–1 and 11000 ± 300 M^–1 s^–1 | KLK6 kobs/I (KLK6; listed as IMP-2352): 11,000 M^–1 s^–1 | labeling of intracellular proteases [9]: did not label any intracellular protease | labeling of endogenous KLK6 (endogenous active KLK6): efficiently labels endogenous active KLK6 | lowest probe concentration detecting active KLK6 (endogenous active KLK6; dose-dependent): 50 nM | effect on proliferation (percentage confluency) (Capan-2 cells [10]): no effect | KLK8 kobs/I (KLK8 [3]): 140 M^–1 s^–1 and 140 ± 5 M^–1 s^–1 | selectivity for KLK6 over KLK8 (KLK8 [3]; ratio of kobs/I): > 70 fold | inhibition of recombinant KLK6 versus tPA and uPA [11]: selectively inhibit KLK6 over the two off-targets | effect on migration (BxPC-3 cells; [13]): no effect | effect on invasion (BxPC-3 cells; [14]): no effect | effect on migration (Capan-2 cells [12]; [13]): reduced | effect on invasion (Capan-2 cells [12]; [14]): reduced | selectivity for KLK6 over tPA ([5]; ratio of kobs/I): > 600 fold | selectivity for KLK6 over uPA ([6]; ratio of kobs/I): > 600 fold | KLK7 kobs/I (KLK7 [7]): 350 M⁻¹ s⁻¹ and 350 ± 90 M⁻¹ s⁻¹ | selectivity for KLK6 over KLK7 (KLK7 [7]; ratio of kobs/I): > 30 fold

Now from value to substance, other results behind:

Km (KLK7 [1]): 56 µM
Substance: Ac-KHLF-{ACC} (SMILES CC(=O)N[C@@H](CCCCN)C(=O)N[C@@H](Cc1c[nH]cn1)C(=O)N[C@@H](CC(C)C)C(=O)N[C@@H](Cc1ccccc1)C(=O)Nc1ccc2c(CC(N)=O)cc(=O)oc2c1) [compound 24, purified fluorogenic substrate for KLK7]

KLK6 kobs/I (KLK6): 1000 M^–1 s^–1 | KLK8 kobs/I (KLK8 [3]): 40 M^–1 s^–1 | tPA kobs/I ([5]; tPA 2 nM, Z-GGR-AMC 60 µM, manufacturer's buffer, room temperature, 30 min, pseudo first order kinetics, triplicates): 8 M⁻¹ s⁻¹ | uPA kobs/I ([6]; uPA 2 nM, Z-GGR-AMC 60 µM, manufacturer's buffer, room temperature, 30 min, pseudo first order kinetics, triplicates): 0 M⁻¹ s⁻¹ | KLK7 kobs/I (KLK7 [7]): 26 M⁻¹ s⁻¹
Substance: Cy5–DPhe–Ser(Z)–Dht–ArgPP [compound 21, Cy5-tagged KLK6 ABP]
labeling of inactive KLK6[S195A] mutant (KLK6[S195A]): not labeled | labeling of active recombinant KLK6 [4]: dose-dependent labeling

KLK6 kobs/I (KLK6): 3000 M^–1 s^–1
Substance: Yn–DPhe–Ser(Z)–Dht–ArgPP [compound 19]
engagement of endogenous tPA and uPA (endogenous tPA and uPA): does not substantively engage
